# From PubChem BioAssay AID2060904 (Molecular Pharmacology Branch, DTP, NCI, 2025)
# Tested on: 349418-098-R-PDC complex spheroid viability
# Experiment: Anticancer human tumor 349418-098-R-PDC patient-derived lung adenocarcinoma cell line growth inhibition [RAS]
# Settings: for IC50: curve of first compound; for viability, T/C: stronger effect = lower value
# In short: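 Tumour cells grown as complex spheroids with HUVEC endothelial cells and mesenchymal stem cells, treated with RAS pathway inhibitor combinations. Each agent spans half-log steps from near clinical Cmax, or 10 microM where Cmax is unknown.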
# [1] = second compound 0.0316 µM, first compound 0.0316 µM
# [2] = second compound 0.0316 µM, first compound 0.1 µM
# [3] = second compound 0.0316 µM, first compound 0.316 µM
# [4] = second compound 0.0316 µM, first compound 1 µM
# [5] = second compound 0.0316 µM, first compound 3.16 µM
# [6] = second compound 0.0316 µM, first compound 10 µM
# [7] = second compound 0.1 µM, first compound 0.0316 µM
# [8] = second compound 0.1 µM, first compound 0.1 µM
# [9] = second compound 0.1 µM, first compound 0.316 µM
# [10] = second compound 0.1 µM, first compound 1 µM
# [11] = second compound 0.1 µM, first compound 3.16 µM
# [12] = second compound 0.1 µM, first compound 10 µM
# [13] = second compound 0.316 µM, first compound 0.0316 µM
# [14] = second compound 0.316 µM, first compound 0.1 µM
# [15] = second compound 0.316 µM, first compound 0.316 µM
# [16] = second compound 0.316 µM, first compound 1 µM
# [17] = second compound 0.316 µM, first compound 3.16 µM
# [18] = second compound 0.316 µM, first compound 10 µM
# [19] = second compound 1 µM, first compound 0.0316 µM
# [20] = second compound 1 µM, first compound 0.1 µM
# [21] = second compound 1 µM, first compound 0.316 µM
# [22] = second compound 1 µM, first compound 1 µM
# [23] = second compound 1 µM, first compound 3.16 µM
# [24] = second compound 1 µM, first compound 10 µM
# 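Further: spheroids exposed to compound for seven days before viability readout.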
structure (smiles),measurement,setting,value
CC(C)NCC(C(=O)N1CCN(c2ncnc3c2C(C)CC3O)CC1)c1ccc(Cl)cc1 (stereo unspecified) + C=CC(=O)N1CCN(c2nc(OCC3CCCN3C)nc3c(F)c(-c4nc(N)cc(C)c4C(F)(F)F)c(Cl)cc23)C(C)C1,IC50,second compound 0.00316 µM,0.386 µM
same,IC50,second compound 0.01 µM,0.252 µM
same,IC50,second compound 0.0316 µM,0.593 µM
same,IC50,second compound 0.1 µM,0.545 µM
same,IC50,second compound 0.316 µM,0.62 µM
same,IC50,second compound 1 µM,0.553 µM
same,"viability, T/C","second compound 0.00316 µM, first compound 0.0316 µM",88.2%
same,"viability, T/C","second compound 0.00316 µM, first compound 0.1 µM",86.6%
same,"viability, T/C","second compound 0.00316 µM, first compound 0.316 µM",53.7%
same,"viability, T/C","second compound 0.00316 µM, first compound 1 µM",24.3%
same,"viability, T/C","second compound 0.00316 µM, first compound 3.16 µM",17.2%
same,"viability, T/C","second compound 0.00316 µM, first compound 10 µM",7.89%
same,"viability, T/C","second compound 0.01 µM, first compound 0.0316 µM",102%
same,"viability, T/C","second compound 0.01 µM, first compound 0.1 µM",83.9%
same,"viability, T/C","second compound 0.01 µM, first compound 0.316 µM",39.3%
same,"viability, T/C","second compound 0.01 µM, first compound 1 µM",23.7%
same,"viability, T/C","second compound 0.01 µM, first compound 3.16 µM",15.9%
same,"viability, T/C","second compound 0.01 µM, first compound 10 µM",9.35%
same,"viability, T/C",[1],78%
same,"viability, T/C",[2],77.1%
same,"viability, T/C",[3],81.2%
same,"viability, T/C",[4],26.1%
same,"viability, T/C",[5],22.7%
same,"viability, T/C",[6],10%
same,"viability, T/C",[7],70%
same,"viability, T/C",[8],67.5%
same,"viability, T/C",[9],67.6%
same,"viability, T/C",[10],31.1%
same,"viability, T/C",[11],16.1%
same,"viability, T/C",[12],9.41%
same,"viability, T/C",[13],66.8%
same,"viability, T/C",[14],82.1%
same,"viability, T/C",[15],76.3%
same,"viability, T/C",[16],32.2%
same,"viability, T/C",[17],24.5%
same,"viability, T/C",[18],7.85%
same,"viability, T/C",[19],72.8%
same,"viability, T/C",[20],65.4%
same,"viability, T/C",[21],71.8%
same,"viability, T/C",[22],28.8%
same,"viability, T/C",[23],25%
same,"viability, T/C",[24],10.2%
CC(C)NCC(C(=O)N1CCN(c2ncnc3c2C(C)CC3O)CC1)c1ccc(Cl)cc1 (stereo unspecified) + CCn1c(-c2cccnc2C(C)OC)c2c3cc(ccc31)N1CCOC(CC(NC(=O)C(C(C)C)N(C)C(=O)C3(F)CCN(C(=O)C#CC(C)(C)N(C)C)CC3)C(=O)N3CCCC(N3)C(=O)OCC(C)(C)C2)C1,IC50,second compound 0.000949 µM,0.603 µM
same,IC50,second compound 0.003 µM,0.357 µM
same,IC50,second compound 0.00949 µM,0.501 µM
same,IC50,second compound 0.03 µM,0.507 µM
same,IC50,second compound 0.0949 µM,0.523 µM
same,IC50,second compound 0.3 µM,0.352 µM
same,"viability, T/C","second compound 0.000949 µM, first compound 0.0316 µM",83.5%
same,"viability, T/C","second compound 0.000949 µM, first compound 0.1 µM",88.7%
same,"viability, T/C","second compound 0.000949 µM, first compound 0.316 µM",76%
same,"viability, T/C","second compound 0.000949 µM, first compound 1 µM",29.1%
same,"viability, T/C","second compound 0.000949 µM, first compound 3.16 µM",24.2%
same,"viability, T/C","second compound 0.000949 µM, first compound 10 µM",10.7%
same,"viability, T/C","second compound 0.003 µM, first compound 0.0316 µM",103%
same,"viability, T/C","second compound 0.003 µM, first compound 0.1 µM",60.9%
same,"viability, T/C","second compound 0.003 µM, first compound 0.316 µM",51.6%
same,"viability, T/C","second compound 0.003 µM, first compound 1 µM",48.1%
same,"viability, T/C","second compound 0.003 µM, first compound 3.16 µM",18.7%
same,"viability, T/C","second compound 0.003 µM, first compound 10 µM",10.2%
same,"viability, T/C","second compound 0.00949 µM, first compound 0.0316 µM",101%
same,"viability, T/C","second compound 0.00949 µM, first compound 0.1 µM",85.7%
same,"viability, T/C","second compound 0.00949 µM, first compound 0.316 µM",58.9%
same,"viability, T/C","second compound 0.00949 µM, first compound 1 µM",35%
same,"viability, T/C","second compound 0.00949 µM, first compound 3.16 µM",19.6%
same,"viability, T/C","second compound 0.00949 µM, first compound 10 µM",8.77%
same,"viability, T/C","second compound 0.03 µM, first compound 0.0316 µM",97.6%
same,"viability, T/C","second compound 0.03 µM, first compound 0.1 µM",86.8%
same,"viability, T/C","second compound 0.03 µM, first compound 0.316 µM",56.8%
same,"viability, T/C","second compound 0.03 µM, first compound 1 µM",33.3%
same,"viability, T/C","second compound 0.03 µM, first compound 3.16 µM",28.5%
same,"viability, T/C","second compound 0.03 µM, first compound 10 µM",8.92%
same,"viability, T/C","second compound 0.0949 µM, first compound 0.0316 µM",83.3%
same,"viability, T/C","second compound 0.0949 µM, first compound 0.1 µM",75.5%
same,"viability, T/C","second compound 0.0949 µM, first compound 0.316 µM",62.9%
same,"viability, T/C","second compound 0.0949 µM, first compound 1 µM",32.5%
same,"viability, T/C","second compound 0.0949 µM, first compound 3.16 µM",24.2%
same,"viability, T/C","second compound 0.0949 µM, first compound 10 µM",8.81%
same,"viability, T/C","second compound 0.3 µM, first compound 0.0316 µM",94.9%
same,"viability, T/C","second compound 0.3 µM, first compound 0.1 µM",76.7%
same,"viability, T/C","second compound 0.3 µM, first compound 0.316 µM",46.5%
same,"viability, T/C","second compound 0.3 µM, first compound 1 µM",34.3%
same,"viability, T/C","second compound 0.3 µM, first compound 3.16 µM",27.5%
same,"viability, T/C","second compound 0.3 µM, first compound 10 µM",11%
NC1c2ccccc2OC12CCN(c1cnc3c(N4CCCc5ncccc54)n[nH]c3n1)CC2 (stereo unspecified) + C#Cc1c(F)ccc2cc(O)cc(-c3ncc4c(N5CC6CCC(C5)N6)nc(OCC56CCCN5CC(F)C6)nc4c3F)c12,IC50,second compound 0.0316 µM,> 10 µM
same,IC50,second compound 0.1 µM,9.34 µM
same,IC50,second compound 0.316 µM,> 10 µM
same,IC50,second compound 1 µM,> 10 µM
same,IC50,second compound 3.16 µM,> 10 µM
same,IC50,second compound 10 µM,> 10 µM
same,"viability, T/C",[1],113%
same,"viability, T/C",[2],108%
same,"viability, T/C",[3],96.7%
same,"viability, T/C",[4],79.7%
same,"viability, T/C",[5],90.1%
same,"viability, T/C",[6],63%
same,"viability, T/C",[7],86.7%
same,"viability, T/C",[8],86.2%
same,"viability, T/C",[9],94.7%
same,"viability, T/C",[10],79.1%
same,"viability, T/C",[11],94.3%
same,"viability, T/C",[12],47.6%
same,"viability, T/C",[13],94.2%
same,"viability, T/C",[14],120%
same,"viability, T/C",[15],105%
same,"viability, T/C",[16],76.2%
same,"viability, T/C",[17],83.5%
same,"viability, T/C",[18],58.4%
same,"viability, T/C",[19],95.9%
same,"viability, T/C",[20],92.4%
same,"viability, T/C",[21],87.5%
same,"viability, T/C",[22],99.6%
same,"viability, T/C",[23],104%
same,"viability, T/C",[24],54.2%
same,"viability, T/C","second compound 3.16 µM, first compound 0.0316 µM",71%
same,"viability, T/C","second compound 3.16 µM, first compound 0.1 µM",90.4%
same,"viability, T/C","second compound 3.16 µM, first compound 0.316 µM",90.1%
same,"viability, T/C","second compound 3.16 µM, first compound 1 µM",84.3%
same,"viability, T/C","second compound 3.16 µM, first compound 3.16 µM",84.9%
same,"viability, T/C","second compound 3.16 µM, first compound 10 µM",77%
same,"viability, T/C","second compound 10 µM, first compound 0.0316 µM",85.3%
same,"viability, T/C","second compound 10 µM, first compound 0.1 µM",22.6%
same,"viability, T/C","second compound 10 µM, first compound 0.316 µM",67.2%
same,"viability, T/C","second compound 10 µM, first compound 1 µM",82.7%
same,"viability, T/C","second compound 10 µM, first compound 3.16 µM",65.3%
same,"viability, T/C","second compound 10 µM, first compound 10 µM",67.2%
